According to PubChem BioAssay AID276 (DTP/NCI, 2004):
Where “and” joins values, the source holds several entries; their conditions need not be identical. Equal entries are not always repeated. Toxic doses and inconclusive results are not listed. How the source made its calls: active means survival T/C of 150% or more; inactive means T/C below 125% in these data.

System: B6C3F1 mice, Lewis lung carcinoma iv, survival T/C
Experiment: NCI In Vivo Anticancer Drug Screen. Data for tumor model Lewis Lung Carcinoma (intravenous) in B6C3F1 mice
Settings: endpoint: median survival time, schedule: Q01DX009 (ip), higher = longer survival
Method: The antitumor activity of compounds was measured in mice bearing transplantable tumors. Survival or tumor size were measured and the results are expressed as the measurement made in the treated group (T) divided by the measurement made in the vehicle treated control group (C). The tumor model used in this assay is Lewis Lung Carcinoma (intravenous) in B6C3F1 mice

[1] = dose: 2.5 mg/kg/injection, vehicle: saline
[2] = dose: 10.0 mg/kg/injection, vehicle: saline
[3] = dose: 12.5 mg/kg/injection, vehicle: water
[4] = dose: 25.0 mg/kg/injection, vehicle: water
[5] = dose: 16.0 mg/kg/injection, vehicle: saline with Tween-80
[6] = dose: 32.0 mg/kg/injection, vehicle: saline with Tween-80
[7] = dose: 64.0 mg/kg/injection, vehicle: saline with Tween-80
[8] = dose: 256.0 mg/kg/injection, vehicle: saline with Tween-80
[9] = dose: 25.0 mg/kg/injection, vehicle: saline with Tween-80
[10] = dose: 50.0 mg/kg/injection, vehicle: saline with Tween-80
[11] = dose: 100.0 mg/kg/injection, vehicle: saline with Tween-80
[12] = dose: 200.0 mg/kg/injection, vehicle: saline with Tween-80

Measured: T/C

O=NN(CCF)C(=O)NC1C(O)CCCC1O (stereo not given)
active: [2] 312 % of control
inactive: [1] 116 % of control | dose: 20.0 mg/kg/injection, vehicle: saline 104 % of control

C/C(=N\NC(=S)N1CCN(c2ccccn2)CC1)c1ccccn1
inactive: dose: 6.25 mg/kg/injection, vehicle: water 109 % of control | [3] 104 % of control | [4] 113 % of control

CNC(=O)Oc1ccc[nH]c1=O
inactive: [5] 101 % of control | [6] 103 % of control | [7] 104 % of control | dose: 128.0 mg/kg/injection, vehicle: saline with Tween-80 90 % of control | [8] 94 % of control

C=C(C)[C@H]1CN[C@H](C(=O)O)[C@H]1CC(=O)O
inactive: dose: 0.31 mg/kg/injection, vehicle: saline 113 % of control | dose: 0.62 mg/kg/injection, vehicle: saline 103 % of control | dose: 1.25 mg/kg/injection, vehicle: saline 112 % of control | [1] 100 % of control | dose: 5.0 mg/kg/injection, vehicle: saline 112 % of control | [2] 107 % of control

O=C1[C@H]2CCC[C@H]2[C@H]2CCC[C@@H]12
inactive: dose: 6.25 mg/kg/injection, vehicle: saline with Tween-80 95 % of control | dose: 12.5 mg/kg/injection, vehicle: saline with Tween-80 104 % of control | [9] 98 % of control | [10] 95 % of control | [11] 91 % of control | [12] 102 % of control

Cc1c(N)nc([C@H](CC(N)=O)NC[C@H](N)C(N)=O)nc1C(=O)N[C@H](C(=O)N[C@H](C)[C@@H](O)CC(=O)N[C@H](C(=O)NC(O[C@@H]1O[C@@H](C)[C@@H](N)[C@@H](O)[C@H]1O)C(O)c1nc(-c2nc(C(=O)NCCCCN)cs2)cs1)[C@@H](C)O)[C@@H](O[C@@H]1O[C@@H](CO)[C@@H](O)[C@H](O)[C@@H]1O[C@H]1O[C@H](CO)[C@@H](O)[C@H](OC(N)=O)[C@@H]1O)c1c[nH]cn1 (stereo not given in full)
active: dose: 8.0 mg/kg/injection, vehicle: saline 176 % of control
inactive: dose: 2.0 mg/kg/injection, vehicle: saline 123 % of control

O=c1[nH]cccc1O
inactive: [5] 98 % of control | [6] 94 % of control | [7] 103 % of control | [8] 101 % of control

C[C@]12C=CC(=O)C=C1CC[C@@H]1[C@@H]2C(=O)C[C@@]2(C)[C@H]1CC[C@]2(O)C(=O)CO
inactive: [3] 100 % of control | [4] 100 % of control | dose: 50.0 mg/kg/injection, vehicle: water 96 % of control | dose: 100.0 mg/kg/injection, vehicle: water 98 % of control | dose: 200.0 mg/kg/injection, vehicle: water 94 % of control

O=C(c1cccnc1)c1cc(-c2ccccn2)c(=O)n2ccccc12
inactive: [9] 100 % of control | [10] 96 % of control | [11] 102 % of control | [12] 105 % of control | dose: 400.0 mg/kg/injection, vehicle: saline with Tween-80 102 % of control

C[n+]1c(-c2cccc(OCCOCCOc3cccc(-c4c5cc(N)ccc5c5ccc(N)cc5[n+]4C)c3)c2)c2cc(N)ccc2c2ccc(N)cc21
inactive: dose: 0.5 mg/kg/injection, vehicle: water 105 % of control | dose: 0.75 mg/kg/injection, vehicle: saline with Tween-80 103 % of control | dose: 1.0 mg/kg/injection, vehicle: water 96 % of control | dose: 1.5 mg/kg/injection, vehicle: saline with Tween-80 102 % of control | dose: 2.0 mg/kg/injection, vehicle: water 100 % of control | dose: 3.0 mg/kg/injection, vehicle: saline with Tween-80 99 % of control | dose: 4.0 mg/kg/injection, vehicle: water 100 % of control and 105 % of control | dose: 6.0 mg/kg/injection, vehicle: saline with Tween-80 108 % of control | dose: 8.0 mg/kg/injection, vehicle: water 105 % of control and 110 % of control | dose: 16.0 mg/kg/injection, vehicle: water 116 % of control

O=C1NC(O)c2ccccc2O1 (stereo not given)
inactive: dose: 25.0 mg/kg/injection, vehicle: suspension in saline 106 % of control | dose: 50.0 mg/kg/injection, vehicle: suspension in saline 89 % of control | dose: 100.0 mg/kg/injection, vehicle: suspension in saline 107 % of control | dose: 200.0 mg/kg/injection, vehicle: suspension in saline 97 % of control

C=C(OP(=O)(OC)OC)Sc1ccccc1C
inactive: dose: 0.06 mg/kg/injection, vehicle: Klucel (hydroxypropylcellulose) (HPC) 105 % of control | dose: 0.12 mg/kg/injection, vehicle: Klucel (hydroxypropylcellulose) (HPC) 104 % of control | dose: 0.25 mg/kg/injection, vehicle: Klucel (hydroxypropylcellulose) (HPC) 110 % of control | dose: 0.37 mg/kg/injection, vehicle: Klucel (hydroxypropylcellulose) (HPC) 100 % of control | dose: 0.5 mg/kg/injection, vehicle: Klucel (hydroxypropylcellulose) (HPC) 89 % of control | dose: 0.75 mg/kg/injection, vehicle: Klucel (hydroxypropylcellulose) (HPC) 91 % of control

CCC12C[N+]3([O-])CCc4c([nH]c5ccccc45)C(C(=O)OC)(c4cc5c(cc4OC)N(C)C4C(O)(C(=O)OC)C(OC(C)=O)C6(CC)C=CCN7CCC54C76)CC(C3)C1O2 (stereo not given)
inactive: dose: 0.62 mg/kg/injection, vehicle: water 93 % of control | dose: 1.25 mg/kg/injection, vehicle: water 94 % of control | dose: 2.5 mg/kg/injection, vehicle: water 97 % of control | dose: 5.0 mg/kg/injection, vehicle: water 95 % of control | dose: 10.0 mg/kg/injection, vehicle: water 98 % of control | dose: 20.0 mg/kg/injection, vehicle: water 101 % of control

CCCCC(=O)OCC(=O)[C@]1(O)Cc2c(O)c3c(c(O)c2[C@@H](OC2CC(NC(=O)C(F)(F)F)C(O)C(C)O2)C1)C(=O)c1c(OC)cccc1C3=O (stereo not given in full)
inactive: dose: 4.0 mg/kg/injection, vehicle: Klucel (hydroxypropylcellulose) (HPC) 100 % of control | dose: 4.0 mg/kg/injection, vehicle: saline with Tween-80 107 % of control | dose: 8.0 mg/kg/injection, vehicle: Klucel (hydroxypropylcellulose) (HPC) 100 % of control | dose: 8.0 mg/kg/injection, vehicle: saline with Tween-80 88 % of control | dose: 16.0 mg/kg/injection, vehicle: Klucel (hydroxypropylcellulose) (HPC) 107 % of control | [5] 96 % of control | dose: 32.0 mg/kg/injection, vehicle: Klucel (hydroxypropylcellulose) (HPC) 110 % of control | [6] 108 % of control | dose: 64.0 mg/kg/injection, vehicle: Klucel (hydroxypropylcellulose) (HPC) 118 % of control | dose: 128.0 mg/kg/injection, vehicle: Klucel (hydroxypropylcellulose) (HPC) 120 % of control
